We go through 3 compounds from publication PMC6052247, “Structurally Diverse Polyketides From the Mangrove-Derived Fungus Diaporthe sp. SCSIO 41011 With Their Anti-influenza A Virus Activities” (Frontiers in Chemistry, 2018).

As usually defined, the IC50 is the midpoint of a concentration-inhibition curve.

This assay deals with A/Puerto Rico/8/34 H274Y (H1N1). It counts as cell-based, Influenza A virus.
5-chloroisorotiorin gave an IC50 of 2520 ± 210 nM.
As for `CCCCCc1cc(=O)c2c(CC(=O)OC)cc(O)cc2o1` [Compound 14, pestalotiopsone F], the figure is 21800 ± 7960 nM; as for `CCCCCCCc1cc(=O)c2c(CC(=O)OCC)cc(O)cc2o1` [Compound 15, pestalotiopsone B], 2560 ± 320 nM.
